# Key:
# [1] = system: L. monocytogenes ATCC 19115; assay: MIC/MBC microdilution; format: cell-based, Listeria monocytogenes; settings: lowest concentration that killed 99.9%; TSB-YE; highest concentration 100 µM
# [2] = system: L. monocytogenes ATCC19111; assay: Potassium release and SEM (cell membrane damage); format: cell-based, Listeria monocytogenes; settings: potassium release 1×, 8×, 32× MIC, 1 h; SEM 8× and 32× MIC, 3 h, 30°C
# Description: The amount of potassium released was measured using a HI96750 Potassium Photometer.
# Bacillus cereus CMCC63301 and L. monocytogenes ATCC19111 were grown in TSB medium to an OD600 of 0.3. […] The cells were harvested after centrifugation (6,000 × g, 10 min), washed with PBS buffer thrice, and fixed with 2.5% (vol/vol) glutaraldehyde for 12 h at 4°C. Subsequently, the cells were subjected to gradient dehydration for 10 min, treated with isoamyl acetate for 10 min, dried with a lyophilizer for 12 h, coated with gold-palladium, and observed using a Zeiss Gemini360 instrument ([18]).
# [3] = system: L. monocytogenes ATCC 7644; assay: MIC/MBC microdilution; format: cell-based, Listeria monocytogenes; settings: lowest concentration that killed 99.9%; TSB-YE; highest concentration 100 µM
# [4] = system: L. monocytogenes ATCC 15313; assay: MIC/MBC microdilution; format: cell-based, Listeria monocytogenes; settings: lowest concentration that killed 99.9%; TSB-YE; highest concentration 100 µM
# [5] = system: L. monocytogenes ATCC19111; assay: Time-kill curves (OD600 and CFU); format: cell-based, Listeria monocytogenes
# Excerpt: (§1) Cell growth was monitored hourly by measuring CFU on TSB plates and OD600 values of the cultures.
# [6] = system: L. monocytogenes LM201; assay: MIC/MBC microdilution; format: cell-based, Listeria monocytogenes; settings: lowest concentration that killed 99.9%; TSB-YE; highest concentration 100 µM
# [7] = system: Bacillus cereus CMCC63301; assay: Time-kill curves (OD600 and CFU); format: cell-based
# Excerpt: as §1
# [8] = system: L. monocytogenes ATCC 19117; assay: MIC/MBC microdilution; format: cell-based, Listeria monocytogenes; settings: lowest concentration that killed 99.9%; TSB-YE; highest concentration 100 µM
smiles,measurement,setting,value
C/C=C1\NC(=O)CNC(=O)[C@H](CCSC)NC(=O)[C@@H]2CS[C@@H](C)[C@@H](NC(=O)[C@@H]3CSC[C@@H](NC(=O)[C@H](CC(C)C)NC(=O)[C@H](CC(N)=O)NC(=O)[C@@H](N)Cc4ccc(O)cc4)C(=O)N[C@@H](C)C(=O)N[C@@H](C)C(=O)N[C@@H]([C@@H](C)CC)C(=O)N[C@@H](C)C(=O)N[C@@H](CC(=O)O)C(=O)N[C@@H](C)C(=O)N[C@@H](C)C(=O)NCC(=O)N[C@@H](CC(C)C)C(=O)N[C@@H](CCCCN)C(=O)NCC(=O)N[C@@H](CC(N)=O)C(=O)N[C@@H](Cc4ccc(O)cc4)C(=O)NCC(=O)N[C@@H](CCCCN)C(=O)N[C@@H](Cc4ccccc4)C(=O)N3)C(=O)N[C@@H](Cc3ccc(O)cc3)C(=O)N[C@H](CSC[C@@H](C(=O)NCC(=O)N[C@@H](CO)C(=O)O)NC(=O)[C@H](CO)NC(=O)[C@H](C(C)C)NC1=O)C(=O)N[C@@H](C)C(=O)N[C@@H](CCC(=O)O)C(=O)N2 [mycoidesin],MBC,[1],NA (No activity was detected even at the highest concentration of mycoidesin (100 µM))
same,cell membrane damage,[2],did not cause L. monocytogenes cell membrane damage or cell death
same,MBC,[3],NA (No activity was detected even at the highest concentration of mycoidesin (100 µM))
same,MBC,[4],NA (No activity was detected even at the highest concentration of mycoidesin (100 µM))
same,effect on growth,"[5]; 1×–32× MIC (0.39–12.5 µM), TSB, 30°C, 3 h, OD600",suppressed by mycoidesin in a time- and concentration-dependent manner
same,type of antimicrobial effect,"[5]; low and high concentrations (1×–32× MIC, 0.39–12.5 µM)",bacteriostatic activity
same,cell death (viable count),"[5]; up to 32× MIC (12.5 µM), 30°C, 3 h, CFU",did not cause L. monocytogenes cell membrane damage or cell death
same,MBC,[6],NA (No activity was detected even at the highest concentration of mycoidesin (100 µM))
same,effect on growth,"[7]; 1× MIC (1.56 µM), TSB, 30°C, 3 h, OD600 and CFU",suppressed the growth
same,effect on growth,"[7]; 2× MIC (3.13 µM), TSB, 30°C, 3 h, OD600 and CFU",completely inhibited its growth
same,effect on viable cells,"[7]; 4× and 8× MIC (6.25 and 12.50 µM), TSB, 30°C, 3 h, OD600 and CFU",caused cell death after 2 h of treatment
same,type of antimicrobial effect,"[7]; high concentrations (2×–8× MIC, 3.13–12.5 µM)",bactericidal effect
same,type of antimicrobial effect,"[7]; low concentration (1× MIC, 1.56 µM)",bacteriostatic effect
same,MBC,[8],NA (No activity was detected even at the highest concentration of mycoidesin (100 µM))

# Source: publication PMC12016531 (Applied and Environmental Microbiology, 2025)
